In the supplement of paper PMC10307832:

Legend:
Test in all cases: relative viability (nuclei count vs DMSO), 5 days (fraction); higher = more cells survive
NCI-H23 = system: NCI-H23
Summary of the method: (§1)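 After 5 days of treatment, lung cancer cells in 1536-well plates were fixed and stained in a single step (final 0.05% Triton X-100, 1% formaldehyde, 1 ug/ml Hoechst) and their nuclei counted on 4× images. Treatment had been applied by pin tool the day after seeding as one drug alone or as a fixed anchor-drug dose with five library-drug doses (not always all listed) in √10 steps. Relative viability is the nuclei count of treated wells divided by that of vehicle wells, and values are medians of duplicate plates.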

EKVX = system: EKVX
Summary of the method: as §1

NCI-H727 = system: NCI-H727
Summary of the method: as §1

NCI-H1666 = system: NCI-H1666
Summary of the method: as §1

NCI-H647 = system: NCI-H647
Summary of the method: as §1

NCI-H838 = system: NCI-H838
Summary of the method: as §1

NCI-H1437 = system: NCI-H1437
Summary of the method: as §1

SK-LU-1 = system: SK-LU-1
Summary of the method: as §1

NCI-H661 = system: NCI-H661
Summary of the method: as §1

NCI-H322M = system: NCI-H322M
Summary of the method: as §1

NCI-H358 = system: NCI-H358
Summary of the method: as §1

NCI-H460 = system: NCI-H460
Summary of the method: as §1

NCI-H441 = system: NCI-H441
Summary of the method: as §1

NCI-H1975 = system: NCI-H1975
Summary of the method: as §1

LCLC-97TM1 = system: LCLC-97TM1
Summary of the method: as §1

NCI-H1915 = system: NCI-H1915
Summary of the method: as §1

NCI-H596 = system: NCI-H596
Summary of the method: as §1

PC-3 [JPC-3] = system: PC-3 [JPC-3]
Summary of the method: as §1

NCI-H1792 = system: NCI-H1792
Summary of the method: as §1

NCI-H520 = system: NCI-H520
Summary of the method: as §1

Compound: CN1CCN(CCOc2cc(OC3CCOCC3)c3c(Nc4c(Cl)ccc5c4OCO5)ncnc3c2)CC1 [Saracatinib] + C[C@]1(O)C[C@@H](c2nc(-c3ccc4ccc(-c5ccccc5)nc4c3)c3c(N)nccn32)C1 [Linsitinib] (partner 1 µM)
- relative viability (NCI-H23; first compound 0.02 µM): 0.58
- relative viability (NCI-H23; first compound 0.6325 µM): 0.558
- relative viability (NCI-H23; first compound 2 µM): 0.466
- relative viability (EKVX; first compound 0.02 µM): 0.988
- relative viability (EKVX; first compound 0.2 µM): 0.861
- relative viability (EKVX; first compound 0.6325 µM): 0.866
- relative viability (EKVX; first compound 2 µM): 0.318
- relative viability (NCI-H727; first compound 0.02 µM): 0.284
- relative viability (NCI-H727; first compound 0.2 µM): 0.159
- relative viability (NCI-H727; first compound 0.6325 µM): 0.26
- relative viability (NCI-H727; first compound 2 µM): 0.176
- relative viability (NCI-H1666; first compound 0.02 µM): 0.81
- relative viability (NCI-H1666; first compound 0.2 µM): 0.909
- relative viability (NCI-H1666; first compound 0.6325 µM): 0.815
- relative viability (NCI-H1666; first compound 2 µM): 0.844
- relative viability (NCI-H647; first compound 0.02 µM): 1.05
- relative viability (NCI-H647; first compound 0.2 µM): 0.943
- relative viability (NCI-H647; first compound 0.6325 µM): 1.14
- relative viability (NCI-H647; first compound 2 µM): 0.514
- relative viability (NCI-H838; first compound 0.02 µM): 0.997
- relative viability (NCI-H838; first compound 0.2 µM): 0.871
- relative viability (NCI-H838; first compound 0.6325 µM): 0.749
- relative viability (NCI-H838; first compound 2 µM): 0.838
- relative viability (NCI-H1437; first compound 0.02 µM): 1.04
- relative viability (NCI-H1437; first compound 0.2 µM): 0.985
- relative viability (NCI-H1437; first compound 0.6325 µM): 0.981
- relative viability (NCI-H1437; first compound 2 µM): 1.09
- relative viability (SK-LU-1; first compound 0.02 µM): 0.92
- relative viability (SK-LU-1; first compound 0.2 µM): 0.752
- relative viability (SK-LU-1; first compound 0.6325 µM): 0.639
- relative viability (SK-LU-1; first compound 2 µM): 0.374
- relative viability (NCI-H661; first compound 0.02 µM): 0.525
- relative viability (NCI-H661; first compound 0.2 µM): 0.598
- relative viability (NCI-H661; first compound 0.6325 µM): 0.571
- relative viability (NCI-H661; first compound 2 µM): 0.376
- relative viability (NCI-H322M; first compound 0.02 µM): 0.999
- relative viability (NCI-H322M; first compound 0.2 µM): 0.962
- relative viability (NCI-H322M; first compound 0.6325 µM): 0.924
- relative viability (NCI-H322M; first compound 2 µM): 0.569
- relative viability (NCI-H358; first compound 0.02 µM): 0.813
- relative viability (NCI-H358; first compound 0.2 µM): 0.51
- relative viability (NCI-H358; first compound 0.6325 µM): 0.403
- relative viability (NCI-H358; first compound 2 µM): 0.279
- relative viability (NCI-H460; first compound 0.02 µM): 0.716
- relative viability (NCI-H460; first compound 0.2 µM): 0.664
- relative viability (NCI-H460; first compound 0.6325 µM): 0.329
- relative viability (NCI-H460; first compound 2 µM): 0.181
- relative viability (NCI-H441; first compound 0.02 µM): 0.508
- relative viability (NCI-H441; first compound 0.2 µM): 0.515
- relative viability (NCI-H441; first compound 0.6325 µM): 0.682
- relative viability (NCI-H441; first compound 2 µM): 0.604
- relative viability (NCI-H1975; first compound 0.02 µM): 0.953
- relative viability (NCI-H1975; first compound 0.6325 µM): 0.95
- relative viability (NCI-H1975; first compound 2 µM): 0.478
- relative viability (LCLC-97TM1; first compound 0.02 µM): 0.17
- relative viability (LCLC-97TM1; first compound 0.2 µM): 0.127
- relative viability (LCLC-97TM1; first compound 0.6325 µM): 0.197
- relative viability (LCLC-97TM1; first compound 2 µM): 0.272
- relative viability (NCI-H1915; first compound 0.02 µM): 1.1
- relative viability (NCI-H1915; first compound 0.2 µM): 1.03
- relative viability (NCI-H1915; first compound 0.6325 µM): 1.07
- relative viability (NCI-H1915; first compound 2 µM): 1.07
- relative viability (NCI-H596; first compound 0.02 µM): 1.01
- relative viability (NCI-H596; first compound 0.2 µM): 0.85
- relative viability (NCI-H596; first compound 0.6325 µM): 0.877
- relative viability (NCI-H596; first compound 2 µM): 0.737
- relative viability (PC-3 [JPC-3]; first compound 0.02 µM): 0.961
- relative viability (PC-3 [JPC-3]; first compound 0.2 µM): 0.891
- relative viability (PC-3 [JPC-3]; first compound 0.6325 µM): 0.875
- relative viability (PC-3 [JPC-3]; first compound 2 µM): 0.583
- relative viability (NCI-H1792; first compound 0.02 µM): 0.533
- relative viability (NCI-H1792; first compound 0.2 µM): 0.374
- relative viability (NCI-H1792; first compound 0.6325 µM): 0.647
- relative viability (NCI-H1792; first compound 2 µM): 0.384
- relative viability (NCI-H520; first compound 0.02 µM): 0.911
- relative viability (NCI-H520; first compound 0.2 µM): 0.786
- relative viability (NCI-H520; first compound 0.6325 µM): 0.825
- relative viability (NCI-H520; first compound 2 µM): 0.504
